Columns and labels:
[1] = system: Akt; experiment: Immunoblotting with anti-phospho-Akt-S473 antibody in OVCAR3 cells; assay type: cell-based, human; settings: 3 hours, read-out: IC50, phosphorylation level of Akt (phospho-Akt-S473)
Procedure: The cells were treated with API-1 at indicated concentration for 2 hours and subjected to immunoblotting analysis with anti-phospho-Akt-S473 antibodies (top panel).
OVCAR3 cells, which express elevated levels of phosphor-Akt, were treated with different doses of API-1 for 3 hours.

[2] = system: PKA; experiment: Immunoblotting of PKA phosphorylation in OVCAR3 cells; assay type: cell-based, human
Procedure: FIG. 2D is a graph showing the effect of API-1 on PKA, PKC and PDK kinase activity in living cells. OVCAR3 cells were treated with indicated concentration of API-1 for 1 hour. Cells were lysed and immunoblotted with indicated antibodies.

[3] = system: OVCAR3; experiment: Cell proliferation MTT assay, OVCAR3; assay type: cell-based, human; settings: OVCAR3, 24 hours
Procedure: (§1) The blots were reprobed with anti-actin antibody (bottom panel). FIGS. 4B and 4C are cell proliferation assays in which indicated cell lines were treated with different doses of API-1 for 24 hours and then analyzed with MTT assay. FIGS. 4D-4G show an apoptosis analysis in which cells were treated with API-1 and stained with annexin V and PI and analyzed by FACScan.
(§2) In vitro kinase was performed as previously described (Jiang et al. 2000). Cell survival was assayed with MTT (Sigma). Apoptosis was detected with annexin V (BD Biosciences), which was performed according to manufacture's instruction. Recombinant Akt and PDK1 were purchased from Upstate Biotechnology Inc.
(§3) Akt is a major pro-growth and pro-survival pathway.

[4] = system: OVCA8; experiment: Cell proliferation MTT assay, OVCA8; assay type: cell-based, human; settings: OVCA8, 24 hours
Procedure: as §1, §2, §3

[5] = system: MDA-MB-468; experiment: Cell proliferation MTT assay, MDA-MB-468; assay type: cell-based, human; settings: MDA-MB-468, 24 hours
Procedure: as §1, §2, §3

[6] = system: MCF7; experiment: Cell proliferation MTT assay, MCF7; assay type: cell-based, human; settings: MCF7, 24 hours
Procedure: as §1, §2, §3

[7] = system: OVCAR5; experiment: Cell proliferation MTT assay, OVCAR5; assay type: cell-based, human; settings: OVCAR5, 24 hours
Procedure: as §1, §2, §3

[8] = system: MDA-MB-435s cells; experiment: Cell proliferation MTT assay, MDA-MB-435s; assay type: cell-based, human; settings: 24 hours
Procedure: as §1, §2, §3

[9] = system: OVACAR3; experiment: Apoptosis analysis (annexin V and PI, FACScan), OVACAR3; assay type: cell-based, human
Procedure: as §1, §2, §3

[10] = system: MDA-MB-468; experiment: Apoptosis analysis (annexin V and PI, FACScan), MDA-MB-468; assay type: cell-based, human; settings: MDA-MB-468, annexin V and PI
Procedure: as §1, §2, §3

[11] = system: OVCAR3 tumors; experiment: Nude mouse tumor xenograft model, OVCAR3; assay type: in vivo, nude mice; settings: 10 mg/kg/day i.p.
From the text: (§4) Tumor cells were subcutaneously injected into nude mice with low level of Akt cells on right side and elevated level of Akt cells on left side.

[12] = system: PANC1 tumors; experiment: Nude mouse tumor xenograft model, PANC1; assay type: in vivo, nude mice; settings: 10 mg/kg/day i.p.
From the text: as §4

[13] = Tolerability observations in xenograft mice; assay type: in vivo; settings: 10 mg/kg/day, data not shown
Procedure: Tumor cells were harvested, resuspended in PBS, and injected subcutaneous (s.c.) into the right and left flanks (2×10^6 cells/flank) of 8-week-old female nude mice as reported previously (Sun et al. 1999). When tumors reached about 100-150 mm^3, animals were randomized and dosed intraperitoneal (i.p.) with vehicle or drug daily. Control animals received dimethylsulfoxide (DMSO) (20%) vehicle and treated animals were injected with API-1 (10 mg/kg/day) in 20% DMSO.
Because API-1 inhibits Akt signaling and induces apoptosis and cell growth arrest in cancer cells with elevated levels of Akt (FIGS. 4A-4G), it was reasoned that the growth of tumors with elevated levels of Akt should be more sensitive to API-1 than that of tumors with low levels of Akt in nude mice. To this end, Akt-overexpressing cells (OVCAR3 and PANC-1) were s.c. implanted into the left flank, and those cell lines that express low levels of Akt (OVCAR5 and COLO357) were s.c. implanted into the right flank of mice. When the tumors reached an average size of about 100-150 mm^3, the animals were randomized and treated i.p. with either vehicle or API-1 (10 mg/kg/day). As illustrated in FIGS. 5A-5J, OVCAR3 and PANC1 tumors treated with vehicle control continued to grow. API-1 inhibited OVCAR3 and PANC1 tumor growth by 70% and 50%, respectively (FIGS. 5C-5F and 5G-5J). In contrast, API-1 had little effect on the growth of OVCAR5 and COLO357 cells in nude mice (FIGS. 5A-5J). At dose 10 mg/kg/day, API-1 had no effects on blood glucose level, body weight, activity and food intake of mice (data not shown).

[14] = system: Akt; experiment: Immunoblotting of Akt phosphorylation in treated tumor specimens; assay type: in vivo, nude mice; settings: 10 mg/kg/day
From the text: Tumor cells were subcutaneously injected into nude mice with low level of Akt cells on right side and elevated level of Akt cells on left side. […] API-1 treated and untreated tumor specimens were lysed and immunoblotted with indicated antibodies.

[15] = molecular target: T1, Akt (Homo sapiens, UniProt P31749); experiment: IGF-1 induced plasma membrane translocation of Akt in Myc-AKT1 transfected HeLa cells; assay type: cell-based; settings: Myc-AKT1, 30 min prior to IGF1 for 15 minutes
T1 construct: expressed in transfected cells; host or cells: HeLa
Procedure: HeLa cells were transfected on coverslips with Myc-AKT1, serum-starved overnight and then treated with (FIG. 6C) or without (FIG. 6B) AKT-SI1 for 30 min prior to stimulation with IGF1 for 15 minutes. Following fixation, cells were immuno-stained with the anti-Myc monoclonal antibody, followed by a FITC-conjugated secondary antibody to reveal the presence of the epitope-tagged protein in the cytosol or membrane (FIG. 6B). Cells without treatment with AKT-SI1 and IGF1 were used as control (FIG. 6A).

[16] = system: Akt downstream targets; experiment: Phosphorylation of Akt downstream targets (FIG. 3C); assay type: cell-based
[17] = molecular target: mTORC1 (Homo sapiens, UniProt P42345); experiment: Interference with mTORC1 complex (FIG. 3D)
[18] = molecular target: mTORC2 (Homo sapiens, UniProt P42345); experiment: Interference with mTORC2 complex (FIG. 3D)
[19] = molecular target: T2, wild-type Myc-AKT1 (Homo sapiens, UniProt P31749); settings: wild-type Myc-AKT1 transfected HEK 293 cells
[20] = molecular target: T3, constitutively active Myc-AKT1-E17K (Homo sapiens, UniProt P31749, E17K); settings: Myc-AKT1-E17K transfected HEK 293 cells
[21] = molecular target: T3, constitutively active Myc-AKT1-E17K; experiment: In vitro kinase assay of anti-Myc immunoprecipitates from Myc-AKT1-E17K transfected HEK293 cells; settings: HEK293, Histone H2B substrate
Procedure: (§5) Nevertheless, we compared their capability of inhibiting Akt. HEK293 cells were transfected with wild-type Myc-AKT1 (FIGS. 7B and 7C) and constitutively active Myc-AKT1-E17K (FIGS. 7D and 7E). Following 36 h incubation, cells were serum starved overnight. […] Immunoprecipitation was carried out with anti-Myc antibody and the immunoprecipitates were subjected to in vitro kinase assay using Histone H2B as substrate (top). […] The experiments were repeated three times.

[22] = molecular target: T2, wild-type Myc-AKT1; experiment: In vitro kinase assay of anti-Myc immunoprecipitates from wild-type Myc-AKT1 transfected HEK293 cells; settings: wild-type Myc-AKT1, HEK293, 30 min then EGF 15 min, Histone H2B substrate
Procedure: as §5

T2 sequence (P31749 whole entry): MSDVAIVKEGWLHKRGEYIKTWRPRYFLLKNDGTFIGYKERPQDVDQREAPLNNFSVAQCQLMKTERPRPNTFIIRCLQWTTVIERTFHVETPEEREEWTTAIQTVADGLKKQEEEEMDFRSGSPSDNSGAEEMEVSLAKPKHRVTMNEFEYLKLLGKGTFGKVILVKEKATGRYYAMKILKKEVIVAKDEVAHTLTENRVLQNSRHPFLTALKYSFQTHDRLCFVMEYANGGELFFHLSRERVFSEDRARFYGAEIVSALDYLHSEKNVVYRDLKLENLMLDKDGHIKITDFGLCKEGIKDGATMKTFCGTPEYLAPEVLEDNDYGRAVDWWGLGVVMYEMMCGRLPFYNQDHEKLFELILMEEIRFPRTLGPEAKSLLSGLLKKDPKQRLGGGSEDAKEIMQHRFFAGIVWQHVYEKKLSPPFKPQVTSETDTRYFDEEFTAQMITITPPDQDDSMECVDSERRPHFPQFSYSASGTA
T3 sequence (P31749 whole entry E17K): as the sequence (P31749 whole entry) above, with E17K counted along it
T1 sequence (P31749 whole entry): as the sequence (P31749 whole entry) above

## NC(=O)c1cn(C2OC(CO)C(O)C2O)c2ncnc(N)c2c1=O (stereo not shown) [API-1]
[1]
  IC50: ~800 nM
[2]
  phosphorylation levels of PKA: not inhibited
[3]
  inhibition of cell proliferation: 50-70%
[4]
  inhibition of cell proliferation: 50-70%
[5]
  inhibition of cell proliferation: 50-70%
[6]
  inhibition of cell proliferation: 50-70%
[7]
  inhibition of cell proliferation: 10-30%
[8]
  inhibition of cell proliferation: 10-30%
[9]
  induction of apoptosis: 9 fold
[10]
  induction of apoptosis: 4.6 fold
[11]
  inhibition of tumor growth: 70%
[12]
  inhibition of tumor growth: 50%
[13]
  activity: no effects
  blood glucose level: no effects
  body weight: no effects
  food intake: no effects
[14]
  reduction of phosphorylation levels of Akt in treated tumor samples: about 70%

## API-1
[15]
  IGF-1 induced plasma membrane translocation of Akt: inhibits
[16]
  phosphorylation of Akt downstream targets: inhibited
[17]
  interference with mTORC1 complex: did not interfere
[18]
  interference with mTORC2 complex: did not interfere
[19]
  phospho-Akt levels (S473): inhibit
[20]
  phospho-Akt levels (S473): inhibit
[21]
  inhibition of Akt kinase activity, compared with API-2/TCN: more potent than API-2/TCN
[22]
  inhibition of Akt kinase activity, compared with API-2/TCN: more potent than API-2/TCN

From patent publication US9359347B2, “Inhibitors of Akt/PKB with anti-tumor activity” (University of South Florida, priority 2007, dated 2016)
